Results as given in patent publication US20240156778A1, “THIOPHENE DERIVATIVES FOR USE IN TREATING PORTAL INFLAMMATION AND FIBROSIS” (ENYO PHARMA, priority 2019, published 2024).

Columns and labels:
NASH mouse model [1] = test: Periportal inflammation score in the AMLN-diet NASH mouse model (H&E inflammatory foci); type: in vivo, male C57BL/6JRj mice; details: 8 weeks oral dosing after high-fat (AMLN) diet; Compound #157 7 or 20 mg/kg twice daily; OCA 30 mg/kg once daily; FIG. 1
Experimental: (§1) Mice were fed with a high-fat diet for 30 weeks and then treated by oral administration, twice daily with either compound #157 or once daily with OCA for 8 weeks. Effects on portal/periportal inflammation and fibrosis and on lobular inflammation were determined before treatment and upon study completion.
(§2) Five week old, male C57BL/6JRj mice were fed either chow diet (Altromin 1324, Brogaarden, Denmark) or AMLN diet (40% total fat kcal of which 18.5% were trans-fat kcal, 20% fructose, 2% cholesterol; Research Diets #D09100301). This diet was maintained for 29 weeks prior to study initiation.
Three weeks prior to study initiation, liver biopsies were taken and animals with steatosis grade <2 and fibrosis stage <1 were deselected from the study. Prior to first administration of test article, stratified randomization of mice into treatment groups was performed according to collagen 1a1 (IHC) morphometry from the week -3 biopsies. […]
(§3) At termination, right medial and/or left lateral lobes of the liver (>50% of each lobe harvested) were excised and fixed in 10% neutral-buffered formalin (at least 7 days at room temperature). […] NAFLD and NASH were scored by use of criteria outlined by Kleiner et al. Hepatology 41, p. […]
Inflammation was evaluated by counting the number of hematoxylin and eosin (H&E) positive inflammatory foci per field using a 200× magnification (min. 5 fields per animal). […]

NASH mouse model [2] = test: Periportal fibrosis (% fractional area, Picro Sirius Red) in the AMLN-diet NASH mouse model; type: in vivo, male C57BL/6JRj mice; details: 8 weeks oral dosing after high-fat (AMLN) diet; Compound #157 7 or 20 mg/kg twice daily; FIG. 2
Experimental: as §1, §2
Three weeks prior to study initiation, liver biopsies were taken and animals with steatosis grade <2 and fibrosis stage <1 were deselected from the study. […]
as §3
Portal fibrosis was quantified using Visiopharm Histopathology Image Analysis software (Visioparm, Hørsholm, Denmark). […] Periportal fibrosis was then detected in the periportal zone using the linear Bayesian method and reported as an area fraction.

| SMILES | Effect on portal/periportal inflammation (NASH mouse model [1]) | Effect on portal/periportal fibrosis (NASH mouse model [2]) |
| --- | --- | --- |
| O=C(Nc1scc(C2CCc3ccccc3C2)c1C(=O)O)c1ccccc1 (stereo not drawn) [Compound #157] | resolves | resolves |
| CC[C@H]1[C@@H](O)[C@@H]2[C@H](CC[C@]3(C)[C@@H]([C@H](C)CCC(=O)O)CC[C@@H]23)[C@@]2(C)CC[C@@H](O)C[C@@H]12 [OCA, Obeticholic acid, reference compound] | no effect |  |
